Source: patent publication US20060188938A1, “Compounds for inhibiting beta-amyloid production and methods of identifying the compounds” (priority 2005, published 2006)
Values belong to the compound of their own block, whether it stands above or below them.

Tests used:
[1] = system: β-amyloid production by 7W WT APP751 CHO cells; assay: Screening of NF-kB activation inhibitors, Aβ1-40 and Aβ1-42 ELISA (Example 3); type: cell-based, Chinese hamster; settings: 24 hours (FIG. 6)
Protocol: Most of the compounds screened can be obtained as Calbiochem products from EMD Biosciences, Inc., La Jolla, Calif. R—and S-Niguldipine are available e.g., from Tocris Cookson Inc., Ellisville, Mo. CAPE and Artemisinin are available, e.g., as a Sigma product from Sigma-Aldrich Corp., St. Louis, Mo.
Each compound was dissolved in DMSO. 7W WT APP751 CHO cells overexpressing APP751 were plated into 96-well culture plates in 200 μL of culture medium. Each compound from the library was added to confluent cells to a final concentration of 500 nM, 1 μM, 5 μM, 10 μM and/or 30 μM. After 24 hours of treatment, culture medium was collected and dissolved 10-fold and 2-fold for measuring the level of Aβ1-40 and Aβ1-42, respectively. Aβ1-40 and Aβ1-42 were determined using commercially available ELISAs (Biosource, CA), following the recommendations of the manufacturer.

Compound: COC(=O)C1=C(C)NC(C)=C(C(=O)OCCCN2CCC(c3ccccc3)(c3ccccc3)CC2)[C@H]1c1cccc([N+](=O)[O-])c1.Cl [(S)-(+)-niguldipine]
concentration of Aβ1-40 compared to controls ([1]; 1 μM): significantly decreased | concentration of Aβ1-42 compared to controls ([1]; 1 μM): significantly decreased | concentration of total β-amyloid compared to controls ([1]; 1 μM): significantly decreased | concentration of Aβ1-40 compared to controls ([1]; 5 μM): significantly decreased | concentration of Aβ1-42 compared to controls ([1]; 5 μM): significantly decreased | concentration of total β-amyloid compared to controls ([1]; 5 μM): significantly decreased | concentration of Aβ1-40 compared to controls ([1]; 30 μM): significantly decreased | concentration of Aβ1-42 compared to controls ([1]; 30 μM): significantly decreased | concentration of total β-amyloid compared to controls ([1]; 30 μM): significantly decreased

Compound: CC(=O)C1=C(C)NC(C)=C(C(C)=O)C1c1ccccc1Cl [Example 7, 4-(2-Chlorophenyl)-1,4-dihydro-2,6-dimethylpyridine-3,5-di(2-ethanone)]
melting point: 196 to 197 °C

Compound: COCCOC(=O)C1=C(C)NC(C)=C(C(=O)OCCOC)C1c1ccccc1Cl [Example 10, Bis(2-methoxyethyl) 4-(2-chlorophenyl)-1,4-dihydro-2,6-dimethylpyridine-3,5-dicarboxylate]
melting point: 120 to 121 °C

Compound: CCOC(=O)C1=C(C)NC(C)=C(C(=O)OCC)C1c1ccccc1Br [Example 11, Diethyl 4-(2-bromophenyl)-1,4-dihydro-2,6-dimethylpyridine-3,5-dicarboxylate]
melting point: 144 to 145 °C

Compound: CCOC(=O)C1=C(C)NC(C)=C(C(=O)OCC)C1c1ccccc1F [Example 12, Diethyl 4-(2-fluorophenyl)-1,4-dihydro-2,6-dimethylpyridine-3,5-dicarboxylate]
melting point: 151 to 152.5 °C

Compound: C=CCOC(=O)C1=C(C)NC(C)=C(C(=O)OCC=C)C1c1ccccc1Cl [Example 16, Diallyl 4-(2-chlorophenyl)-1,4-dihydro-2,6-dimethylpyridine-3,5-dicarboxylate]
melting point: 98 to 99 °C

Compound: COCC1=C(C(=O)OC)C(c2ccccc2Cl)C(C(=O)OC)=C(COC)N1 [Example 17, Dimethyl 4-(2-chlorophenyl)-1,4-dihydro-2,6-bis(methoxymethyl)pyridine-3,5-dicarboxylate]
melting point: 137 to 138 °C

Compound: CCOC(=O)C1=C(C)NC(C)=C(C(=O)OCC)C1c1ccccc1I [Example 18, Diethyl 1,4-dihydro-4-(2-iodophenyl)-2,6-dimethylpyridine-3,5-dicarboxylate]
melting point: 173 to 174.5 °C

Compound: NC(=O)Nc1sc(-c2ccc(F)cc2)cc1C(N)=O [IKK-2 Inhibitor IV]
concentration of Aβ1-40 compared to controls ([1]; 500 nM): significantly decreased | concentration of Aβ1-42 compared to controls ([1]; 500 nM): significantly decreased | concentration of total β-amyloid compared to controls ([1]; 500 nM): significantly decreased | concentration of Aβ1-40 compared to controls ([1]; 5 μM): significantly decreased | concentration of Aβ1-42 compared to controls ([1]; 5 μM): significantly decreased | concentration of total β-amyloid compared to controls ([1]; 5 μM): significantly decreased

Compound: COC(=O)C1=C(C)NC(C)=C(C(=O)OCCCN2CCC(c3ccccc3)(c3ccccc3)CC2)[C@@H]1c1cccc([N+](=O)[O-])c1.Cl [R-niguldipine]
concentration of Aβ1-40 compared to controls ([1]; 1 μM): significantly decreased | concentration of Aβ1-42 compared to controls ([1]; 1 μM): significantly decreased | concentration of total β-amyloid compared to controls ([1]; 1 μM): significantly decreased | concentration of Aβ1-40 compared to controls ([1]; 5 μM): significantly decreased | concentration of Aβ1-42 compared to controls ([1]; 5 μM): significantly decreased | concentration of total β-amyloid compared to controls ([1]; 5 μM): significantly decreased | concentration of Aβ1-40 compared to controls ([1]; 30 μM): significantly decreased | concentration of Aβ1-42 compared to controls ([1]; 30 μM): significantly decreased | concentration of total β-amyloid compared to controls ([1]; 30 μM): significantly decreased

Compound: CC1=C(O)C(=O)C=C2C1=CC=C1[C@@]2(C)CC[C@@]2(C)[C@@H]3C[C@](C)(C(=O)O)CC[C@]3(C)CC[C@]12C [celastrol]
concentration of Aβ1-40 compared to controls ([1]; 500 nM): significantly decreased | concentration of Aβ1-42 compared to controls ([1]; 500 nM): significantly decreased | concentration of total β-amyloid compared to controls ([1]; 500 nM): significantly decreased | concentration of Aβ1-40 compared to controls ([1]; 5 μM): significantly decreased | concentration of Aβ1-42 compared to controls ([1]; 5 μM): significantly decreased | concentration of total β-amyloid compared to controls ([1]; 5 μM): significantly decreased

Compound: C=C1C(=O)O[C@@H]2C[C@@]3(C)CCCC(=C)[C@@H]3C[C@H]12 [isohelenin]
concentration of Aβ1-40 compared to controls ([1]; 5 μM): significantly decreased | concentration of Aβ1-42 compared to controls ([1]; 5 μM): significantly decreased | concentration of total β-amyloid compared to controls ([1]; 5 μM): significantly decreased | concentration of Aβ1-40 compared to controls ([1]; 10 μM): significantly decreased | concentration of Aβ1-42 compared to controls ([1]; 10 μM): significantly decreased | concentration of total β-amyloid compared to controls ([1]; 10 μM): significantly decreased

Compound: C=C1C(=O)[C@@]23[C@H](O)C[C@@H]4C(C)(C)CC[C@H](O)[C@@]4(CO)[C@@H]2CC[C@@H]1[C@H]3O [kamebakaurin]
concentration of Aβ1-40 compared to controls ([1]; 10 μM): significantly decreased | concentration of Aβ1-42 compared to controls ([1]; 10 μM): significantly decreased | concentration of total β-amyloid compared to controls ([1]; 10 μM): significantly decreased | concentration of Aβ1-40 compared to controls ([1]; 30 μM): significantly decreased | concentration of Aβ1-42 compared to controls ([1]; 30 μM): significantly decreased | concentration of total β-amyloid compared to controls ([1]; 30 μM): significantly decreased

Other lines, results leading:

melting point: 120 to 121 °C
Compound: CCOC(=O)C1=C(C)NC(C)=C(C(=O)OCC)C1c1ccccc1Cl [Example 6, Diethyl 4-(2-chlorophenyl)-1,4-dihydro-2,6-dimethylpyridine-3,5-dicarboxylate]

melting point: 188 to 189 °C
Compound: COC(=O)C1=C(C)NC(C)=C(C(=O)OC)C1c1ccccc1Cl [Example 8, Dimethyl 4-(2-chlorophenyl)-1,4-dihydro-2,6-dimethylpyridine-3,5-dicarboxylate]

melting point: 194 to 196 °C
Compound: CC1=C(C(=O)OC(C)(C)C)C(c2ccccc2Cl)C(C(=O)OC(C)(C)C)=C(C)N1 [Example 9, Di-tert-butyl 4-(2-chlorophenyl)-1,4-dihydro-2,6-dimethylpyridine-3,5-dicarboxylate]

melting point: 162 to 164 °C
Compound: CC1=C(C(=O)OC(C)(C)C)C(c2ccccc2Br)C(C(=O)OC(C)(C)C)=C(C)N1 [Example 14, Di-tert-butyl 4-(2-bromophenyl)-1,4-dihydro-2,6-dimethylpyridine-3,5-dicarboxylate]

melting point: 159 to 161 °C
Compound: CC1=C(C(=O)OC(C)(C)C)C(c2ccccc2[N+](=O)[O-])C(C(=O)OC(C)(C)C)=C(C)N1 [Example 15, Di-tert-butyl 1,4-dihydro-2,6-dimethyl-4-(2-nitrophenyl)pyridine-3,5-dicarboxylate]

melting point: 164 to 165 °C
Compound: COC(=O)C1=C(C)NC(C)=C(C(=O)OC)C1c1ccccc1Br [Example 19, Dimethyl 4-(2-bromophenyl)-1,4-dihydro-2,6-dimethylpyridine-3,5-dicarboxylate]

melting point: 189.5 to 190.5 °C
Compound: CC1=C(C(=O)OC(C)(C)C)C(c2cccc(Cl)c2)C(C(=O)OC(C)(C)C)=C(C)N1 [Example 21, Di-tert-butyl 4-(3-chlorophenyl)-1,4-dihydro-2,6-dimethylpyridine-3,5-dicarboxylate]

melting point: 151 to 152 °C
Compound: CCOC(=O)C1=C(C)NC(C)=C(C(=O)OCC)C1c1ccc(Cl)cc1 [Example 22, Diethyl 4-(4-chlorophenyl)-1,4-dihydro-2,6-dimethylpyridine-3,5-dicarboxylate]
